From ChEMBL document CHEMBL6071160, “Identification of a novel 10-hydroxyevodiamine prodrug as a potent topoisomerase inhibitor with improved aqueous solubility for treatment of hepatocellular carcinoma” (Eur J Med Chem, 2024) come the findings set out here.

In brackets after ≈: the same amount, converted by molar mass.

In data set [1] the test system is Huh-7. As to the kind of experiment: Antiproliferative activity against human Huh-7 cells assessed as inhibition of cell proliferation incubated for 72 hrs by MTT assay. The conditions noted are these: Huh-7, 72 h. In kind it is functional, cell-based. In general terms: Formazan colour is commonly taken as a measure of viable cells.
Data set [2] can be described thus: Aqueous solubility of the compound […] measured after 72 hrs in shaking by HPLC analysis. The format is physicochemical.
The subject of data set [3] is Huh-7. As to the kind of experiment: Induction of cell cycle arrest in human Huh-7 cells assessed as accumulation of cells at G1 phase 80 nM measured after 24 hrs by flow cytometric assay (reference value: 63.01%). In kind it is functional.
In data set [4] the test system is Huh-7. As to the kind of experiment: Induction of cell cycle arrest in human Huh-7 cells assessed as accumulation of cells at G2 phase 80 nM measured after 24 hrs by flow cytometric assay (reference value: 13.66%). In kind it is functional. A general note: In flow cytometry, cells or beads pass a laser one at a time.
Data set [5] deals with Huh-7. As to the kind of experiment: Induction of cell cycle arrest in human Huh-7 cells assessed as accumulation of cells at S phase 80 nM measured after 24 hrs by flow cytometric assay (reference value: 23.33%). In kind it is functional.
In data set [6] the test system is SK-HEP1. As to the kind of experiment: Induction of cell cycle arrest in human SK-HEP1 cells assessed as accumulation of cells at G1 phase 80 nM measured after 24 hrs by flow cytometric assay (reference value: 47.55%). In kind it is functional.
The subject of data set [7] is SK-HEP1. As to the kind of experiment: Induction of cell cycle arrest in human SK-HEP1 cells assessed as accumulation of cells at G2 phase 80 nM measured after 24 hrs by flow cytometric assay (reference value: 22.41%). The format is functional.
The test system of data set [8] is SK-HEP1. As to the kind of experiment: Induction of cell cycle arrest in human SK-HEP1 cells assessed as accumulation of cells at S phase 80 nM measured after 24 hrs by flow cytometric assay (reference value: 30.04%). The format is functional.
In data set [9] the test system is Huh-7. As to the kind of experiment: Induction of apoptosis in human Huh-7 cells assessed as viable cells at 80 nM measured after 24 hrs by Annexin-V-FITC/PI analysis (reference value: 97.46%). The format is functional. The conditions noted are these: read-out: Activity.
Data set [10] concerns Huh-7. As to the kind of experiment: Induction of apoptosis in human Huh-7 cells assessed as early apoptotic cells at 80 nM measured after 24 hrs by Annexin-V-FITC/PI analysis (reference value: 1.04%). In kind it is functional.
In data set [11] the test system is Huh-7. As to the kind of experiment: Induction of apoptosis in human Huh-7 cells assessed as late apoptotic cells at 80 nM measured after 24 hrs by Annexin-V-FITC/PI analysis (reference value: 1.23%). In kind it is functional.
The subject of data set [12] is Huh-7. As to the kind of experiment: Induction of apoptosis in human Huh-7 cells assessed as necrotic cells at 80 nM measured after 24 hrs by Annexin-V-FITC/PI analysis (reference value: 0.27%). In kind it is functional.
In data set [13] the test system is SK-HEP1. As to the kind of experiment: Induction of apoptosis in human SK-HEP1 cells assessed as viable cells at 80 nM measured after 24 hrs by Annexin-V-FITC/PI analysis (reference value: 97.20%). The format is functional. To be noted: read-out: Activity.
Data set [14] relates to SK-HEP1. As to the kind of experiment: Induction of apoptosis in human SK-HEP1 cells assessed as early apoptotic cells at 80 nM measured after 24 hrs by Annexin-V-FITC/PI analysis (reference value: 1.45%). The format is functional.
Data set [15] has as its system SK-HEP1. As to the kind of experiment: Induction of apoptosis in human SK-HEP1 cells assessed as late apoptotic cells at 80 nM measured after 24 hrs by Annexin-V-FITC/PI analysis (reference value: 0.64%). In kind it is functional.
Data set [16] concerns SK-HEP1. As to the kind of experiment: Induction of apoptosis in human SK-HEP1 cells assessed as necrotic cells at 80 nM measured after 24 hrs by Annexin-V-FITC/PI analysis (reference value: 0.70%). The format is functional.
Data set [17] deals with Huh-7. As to the kind of experiment: Induction of apoptosis in human Huh-7 cells assessed as loss of mitochondrial membrane potential by measuring JC-1 stained cells at 80 nM measured after 24 hrs by JC-1 staining based flow cytometry (reference value: 2.27%). The format is functional.
The test system of data set [18] is SK-HEP1. As to the kind of experiment: Induction of apoptosis in human SK-HEP1 cells assessed as loss of mitochondrial membrane potential by measuring JC-1 stained cells at 80 nM measured after 24 hrs by JC-1 staining based flow cytometry (reference value: 0.49%). The format is functional.
Data set [19] deals with Huh-7. As to the kind of experiment: Induction of apoptosis in human Huh-7 cells assessed as ROS generation by measuring DCFH2-DA stained cells at 80 nM measured after 24 hrs […] (reference value: 0.45%). In kind it is functional.
For data set [20], the system named is SK-HEP1. As to the kind of experiment: Induction of apoptosis in human SK-HEP1 cells assessed as ROS generation by measuring DCFH2-DA stained cells at 80 nM measured after 24 hrs […] (reference value: 0.14%). In kind it is functional.
The next data set has as its system SMMC-7721. As to the kind of experiment: Antiproliferative activity against human SMMC-7721 cells assessed as inhibition of cell proliferation incubated for 72 hrs by MTT assay. In kind it is functional, cell-based. To be noted: SMMC-7721, 72 h.
The nature of data set [21]: Antiproliferative activity against human Doxorubicin-resistant SMMC-7721 cell assessed as inhibition of cell proliferation incubated for 72 hrs by MTT assay. The format is functional, cell-based. To be noted: SMMC-7721, 72 h.
The nature of data set [22]: Drug resistance index, ratio of IC50 for antiproliferative activity against human SMMC-7721 cells to antiproliferative activity against human Doxorubicin-resistant SMMC-7721 cells. In kind it is functional.
In data set [23] the test system is Huh-7. As to the kind of experiment: In vivo antitumor activity against human Huh-7 cells subcutaneously injected into BALB/C nude mouse assessed as tumor growth inhibition at 10 mg/kg, ip administered once daily measured after 14 days. The format is functional. The conditions noted are these: Huh-7, 336 h, time 14 day, read-out: TGI.

The term IC50 denotes the concentration that gives 50% inhibition. What is called thermodynamic solubility is solubility found after equilibrating the solid with the medium. As to `O=C1c2cc(F)cc(F)c2N(c2cccc(F)c2)C2c3[nH]c4ccc(O)cc4c3CCN12` (centres undefined), the IC50 with Huh-7 [1] was 50 nM. The same compound returned a solubility (thermodynamic) at 72 h in data set [2] of 1 µg/mL (≈ 2.3 µM). Also, the Activity in the data set with Huh-7 [3] worked out at 5.79%; with Huh-7 [4] it was 86.71%; with Huh-7 [5] it was 7.51%; with SK-HEP1 [6], 8.18%; in the data set on SK-HEP1 [7], 66.31%; in the data set with SK-HEP1 [8], 25.51%. Besides, the Activity in the data set with Huh-7 [10] came out at 6.84%; in the data set with Huh-7 [11], 10.46%; in the data set with Huh-7 [12], 1.63%; in the data set with SK-HEP1 [14], 22.1%; in the data set with SK-HEP1 [15], 10.49%; with SK-HEP1 [16] it was 1.19%. In addition, the Activity with Huh-7 [17] worked out at 10.62%; with SK-HEP1 [18], 10.75%; with Huh-7 [19] it was 31.15%; in the data set with SK-HEP1 [20], 61.44%. Also, the values for the viability at 0.08 µM in the data set with Huh-7 [9] and in the data set with SK-HEP1 [13] were 81.1% and 66.2%, respectively.
As to `COc1cccc2c1C(=O)c1c(O)c3c(c(O)c1C2=O)C[C@@](O)(C(=O)CO)C[C@@H]3O[C@H]1C[C@H](N)[C@H](O)[C@H](C)O1` [DOXORUBICIN], the IC50 in the data set with SMMC-7721 is 150 nM; in [21], 1350 nM. In addition, the Ratio in data set [22] is 9.
Regarding `CC(=O)Oc1ccc2[nH]c3c(c2c1)CCN1C(=O)c2cc(F)cc(F)c2N(c2cccc(F)c2)C31` (centres undefined), the IC50 with Huh-7 [1] turned out to be 40 nM. In data set [2], this compound had a solubility (thermodynamic) at 72 h of 2.4 µg/mL (≈ 5.03 µM). In the data set with Huh-7 [23], the inhibition in vivo at 10 mg/kg amounted to 40%. Further, the Activity was 18.15% in the data set on Huh-7 [3]; 70.08% in the data set on Huh-7 [4]; 11.77% in the data set with Huh-7 [5]; 11.73% in the data set on SK-HEP1 [6]; 64.96% in the data set with SK-HEP1 [7]; 23.31% in the data set on SK-HEP1 [8]. The Activity was found to be 6.38% in the data set on Huh-7 [10]; 10.32% in the data set on Huh-7 [11]; 0.83% in the data set on Huh-7 [12]; 21.32% in the data set with SK-HEP1 [14]; 9.72% in the data set with SK-HEP1 [15]; 0.85% with SK-HEP1 [16]. The Activity with Huh-7 [17] is 12.03%; with SK-HEP1 [18] it was 12.96%; in the data set on Huh-7 [19], 17.42%; in the data set with SK-HEP1 [20] it was 57.06%. In addition, the viability at 0.08 µM is 82.5% in the data set with Huh-7 [9] and 68.1% in the data set on SK-HEP1 [13].
